The values below come from PubChem BioAssay (NCI).

Some test systems named below: T-47D breast; MALME-3M melanoma; LOX IMVI melanoma; SK-OV-3 ovarian; SF-295 CNS; HL-60(TB) leukemia; SK-MEL-5 melanoma; NCI/ADR-RES ovarian; SN12C renal; TK-10 renal; OVCAR-3 ovarian; A498 renal; UACC-257 melanoma.
Common to all, as to experiment: NCI anticancer screen, dose series, 48 h

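Values below derive from 48-hour exposures of cells grown in 96-well plates, with endpoints linearly interpolated between the two concentrations bracketing the appropriate inhibition level. TGI: concentration producing complete growth inhibition.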 Bounds are passed on as bounds.

In the case of `C=CCOC(=O)CC[C@H](NC(=O)[C@@H](CCC(F)(F)F)Cc1ccc(O)cc1)C(=O)OCC=C`, the TGI was 51.5 µM in the test with T-47D breast; 39.1 µM with MALME-3M melanoma; over 100 µM in the test on LOX IMVI melanoma; over 100 µM with SK-OV-3 ovarian; over 100 µM in the test on SF-295 CNS; over 100 µM with HL-60(TB) leukemia. For the same compound, the results for the TGI in the test with SK-MEL-5 melanoma, in the test on NCI/ADR-RES ovarian and in the test with SN12C renal were 35 µM, over 100 µM and over 100 µM, respectively.
Regarding `CC(=O)Nc1ccc2c3c(cc(O)c2c1)N(C(=O)CCCC(=O)N1CC(CCl)c2c1cc(O)c1cc(NC(C)=O)ccc21)CC3CCl` (stereo not drawn), the TGI was under 0.01 µM in the test on T-47D breast; 0.0318 µM in the test on MALME-3M melanoma; 0.057 µM in the test with TK-10 renal; over 100 µM in the test with LOX IMVI melanoma; over 24.6 µM with SK-OV-3 ovarian; 0.0153 µM in the test on HL-60(TB) leukemia. Besides, the TGI was 0.0262 µM in the test with OVCAR-3 ovarian, over 100 µM with NCI/ADR-RES ovarian and over 100 µM in the test with SN12C renal.
On to `Cc1ccc2c(c1)C(=C(C#N)C#N)CCCS2(=O)=O`, for which the TGI in the test with T-47D breast, in the test on TK-10 renal, with LOX IMVI melanoma, in the test with SK-OV-3 ovarian, with SF-295 CNS and with A498 renal was over 100 µM each time. For the same compound, the TGI in the test on UACC-257 melanoma, with HL-60(TB) leukemia, in the test with OVCAR-3 ovarian, in the test on NCI/ADR-RES ovarian and in the test with SN12C renal was over 100 µM throughout.
For `N#C/C(=C\c1ccc(F)cc1)c1nc(-c2cc3ccccc3oc2=O)cs1`, the TGI with T-47D breast is over 100 µM; in the test with MALME-3M melanoma, 52.9 µM; in the test with TK-10 renal, 38.3 µM; in the test on LOX IMVI melanoma, over 100 µM; in the test with SK-OV-3 ovarian, 67.5 µM; in the test with SF-295 CNS, 30.3 µM. Besides, the TGI in the test with UACC-257 melanoma is 65.9 µM; in the test on HL-60(TB) leukemia it was over 100 µM; with SK-MEL-5 melanoma, 41.6 µM; in the test on NCI/ADR-RES ovarian, over 100 µM; in the test on SN12C renal, over 100 µM.
`N#CC12C(=O)NC(=O)C1(C#N)C1C=CC2CC1` (stereo not drawn): the TGI in the test on T-47D breast, in the test on MALME-3M melanoma, in the test with TK-10 renal, with LOX IMVI melanoma, with SK-OV-3 ovarian and with SF-295 CNS was over 100 µM each time. Further, the TGI in the test with UACC-257 melanoma, with HL-60(TB) leukemia, with OVCAR-3 ovarian, with SK-MEL-5 melanoma, in the test with NCI/ADR-RES ovarian and in the test on SN12C renal was over 100 µM throughout.
Turning to `Cc1c(C)c2ccc(OCC(O)COC(C)C)c(C)c2oc1=O` (stereo not drawn), the TGI was over 100 µM in the test with T-47D breast; 30.3 µM in the test on MALME-3M melanoma; 62.3 µM in the test on TK-10 renal; 42.2 µM in the test on LOX IMVI melanoma; over 100 µM in the test with SK-OV-3 ovarian; over 100 µM in the test on SF-295 CNS. The TGI was 43.4 µM in the test with UACC-257 melanoma; 60.3 µM in the test with HL-60(TB) leukemia; over 100 µM in the test on OVCAR-3 ovarian; 30.2 µM with SK-MEL-5 melanoma; over 100 µM in the test on NCI/ADR-RES ovarian.
In the case of `COc1ccc(C(=O)C#Cc2cn(C3CC(O)C(CO)O3)c(=O)[nH]c2=O)cc1` (stereo not drawn), the TGI in the test with T-47D breast was 35.4 µM; with MALME-3M melanoma, 22.7 µM; in the test with TK-10 renal, over 100 µM; with SK-OV-3 ovarian it was over 100 µM; with SF-295 CNS, over 100 µM; in the test with UACC-257 melanoma, over 100 µM. Moreover, the TGI in the test on HL-60(TB) leukemia was over 10 µM; with OVCAR-3 ovarian, 34.9 µM; in the test on SK-MEL-5 melanoma, over 100 µM; in the test on NCI/ADR-RES ovarian, over 100 µM; with SN12C renal, over 100 µM.
As for `CCc1cccc(C(C)C)c1NC(=O)C(=O)C1C(=O)Nc2ccccc2S1=O` (stereo not drawn), the TGI in the test with T-47D breast, with MALME-3M melanoma, in the test with TK-10 renal, with LOX IMVI melanoma, in the test with SK-OV-3 ovarian and in the test on SF-295 CNS was over 100 µM in each case. In addition, the TGI with A498 renal, in the test with UACC-257 melanoma, with OVCAR-3 ovarian, in the test on SK-MEL-5 melanoma, in the test on NCI/ADR-RES ovarian and with SN12C renal was over 100 µM each time.
As for `COc1ccc(N=c2oc3ccccc3cc2C(N)=O)cc1`, the TGI was over 100 µM with T-47D breast; 46.6 µM with TK-10 renal; over 100 µM in the test on LOX IMVI melanoma; 47.7 µM in the test with SK-OV-3 ovarian; 75.1 µM with SF-295 CNS; over 100 µM in the test with UACC-257 melanoma. Moreover, the TGI in the test on HL-60(TB) leukemia, in the test on OVCAR-3 ovarian, with SK-MEL-5 melanoma, in the test on NCI/ADR-RES ovarian and in the test on SN12C renal was over 100 µM each time.
Consider `COc1cc(OC)cc(OCc2nc3cc(C(F)(F)F)ccc3nc2-c2ccccc2)c1`, for which the TGI in the test with T-47D breast, with MALME-3M melanoma, in the test with TK-10 renal, with LOX IMVI melanoma, in the test with SK-OV-3 ovarian and in the test with SF-295 CNS was over 100 µM each time. In addition, the TGI in the test on UACC-257 melanoma, in the test on HL-60(TB) leukemia, with OVCAR-3 ovarian, in the test with NCI/ADR-RES ovarian and in the test with SN12C renal was over 100 µM throughout.
